Results: patent US20110040086A1, “Novel Beta-Lactam Antibiotics, Methods for Their Production, and Their Use” (DRITTE PATENTPORTFOLIO BETEILIGUNGSGESELLSCHAFT MB, priority 2007, published 2011)

Experiments:
[1] = system: Enterococcus faecalis 769; assay: agar diffusion test (Test System II, multi-resistant germs); type: cell-based; set-up: key: r = resistant (no detectable zone of inhibition)
Outline: (§1)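 Compounds, dissolved in methanol or distilled water, were loaded onto paper discs at 10, 50 and 100 μg and placed three per plate on Müller-Hinton agar II spread with a McFarland 0.5 saline suspension. After 18-20 h at 37 °C, inhibition zone diameters were measured.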

[2] = system: Staphylococcus aureus 315; assay: as above; type: cell-based; set-up: key: r = resistant (no detectable zone of inhibition)
Outline: as §1

B. subtilis AWD 166 = assay: agar diffusion test (antimicrobial effect); type: cell-based, Bacillus subtilis
Method: (§2) The seeding of bacteria in agar is selected so that, dense, but not confluent individual colonies develop after the incubation.
(§3) The inoculated nutrient agar is set in sterile Petri dishes and left standing for a few minutes for drying.
(§4) The test substances are deposited in stepped quantities (10 μg, 50 μg, 100 μg) onto active ingredient carriers (sensi-discs). For this purpose, the test substances are dissolved in methanol or A. dest. according to their solubility. Each inoculated plate is fitted with 3 test sheets.
(§5) After a 20-hour incubation time at 37° C., the zones of inhibition around the individual test sheets could be measured. The diameter of the zone of inhibition is specified in mm.

S. epidermidis 563 = assay: agar diffusion test (Test System II, multi-resistant germs); type: cell-based, Staphylococcus epidermidis
Outline: as §1

S. epidermidis 1068 = assay: as above; type: cell-based, Staphylococcus epidermidis
Outline: as §1

S. epidermidis 1071 = assay: as above; type: cell-based, Staphylococcus epidermidis
Outline: as §1

S. epidermidis 847 = assay: as above; type: cell-based, Staphylococcus epidermidis
Outline: as §1

S. aureus 36881 = assay: as above; type: cell-based, Staphylococcus aureus; set-up: key: r = resistant (no detectable zone of inhibition)
Outline: as §1

S. aureus 39105 = assay: as above; type: cell-based, Staphylococcus aureus; set-up: key: r = resistant (no detectable zone of inhibition)
Outline: as §1

S. aureus 33490 = assay: as above; type: cell-based, Staphylococcus aureus; set-up: key: r = resistant (no detectable zone of inhibition)
Outline: as §1

S. aureus 526 = assay: as above; type: cell-based, Staphylococcus aureus; set-up: key: r = resistant (no detectable zone of inhibition)
Outline: as §1

S. aureus 34289 = assay: as above; type: cell-based, Staphylococcus aureus; set-up: key: r = resistant (no detectable zone of inhibition)
Outline: as §1

[3] = system: S. aureus North Germany strain; assay: as above; type: cell-based, Staphylococcus aureus; set-up: key: r = resistant (no detectable zone of inhibition)
Outline: as §1

S. aureus 520 = assay: as above; type: cell-based, Staphylococcus aureus; set-up: key: r = resistant (no detectable zone of inhibition)
Outline: as §1

S. epidermidis 125 = assay: as above; type: cell-based, Staphylococcus epidermidis
Outline: as §1

E. faecalis 945 = assay: as above; type: cell-based, Enterococcus faecalis; set-up: key: r = resistant (no detectable zone of inhibition)
Method: as §4
Test System II (Effect Against Multi-Resistant Germs)
For this purpose, bacteria is cultivated on Müller-Hinton-Agar II plates.
With 1-1.5 ml physiological saline solution, a bacteria suspension of McFarland 0.5 (corresponds to a bacteria density of 150×10^6 germs) is produced. Then, with a sterile glass rod, a small drop of bacteria suspension is placed on the Müller-Hinton-Agar plate and coated in three layers (vertical, horizontal, and transverse). Thereafter, the sensi-discs with the novel semi-synthetic test substances are placed on top. The fitted plates are incubated for 18-20 hours at 37° C. After incubation, the diameters of the zones of inhibition are read as a measure for the antimicrobial activity of the novel semi-synthetic test substances.

[4] = logP value by HPLC according to Donovan et al.; details: HPLC with methanol/0.1% phosphoric acid gradient, pH 2
Method: • Operating temperature 18-24° C. • Flow 1.5 mL/min • Linear gradient (methanol/0.1% phosphoric acid pH 2) from 10% to 100% methanol in 9.4 min, equilibrium time between 2 runs 6 min
ca. 0.5 mg of analyte is added to 0.5 ml of a standard solution (440 mg methyl phenyl sulfonate and 380 μl toluene in 150 mL methanol). 2 μl of this sample solution is injected.
Because the distribution coefficients of the two standards running in each test are known, the distribution coefficient of the analytes can be determined from the relationships of the analyte/standard retention times.

[5] = system: Escherichia coli SBUG 1135; assay: agar diffusion test (Test System 1, antimicrobial effect); type: cell-based
Method: (§6) Test System 1 (Antimicrobial Effect)
(§7) The test germs Escherichia coli SBUG 1135 and Bacillus megaterium SBUG 1152 are drawn overnight (17 hours at 37° C.) in 5 ml nutrient medium II. The incubation is performed in a shaking incubator (INFORS AG CH 4103, Bottmingen, Switzerland) at a shaking frequency of 180 rpm.
(§8) After 17 h incubation time, Escherichia coli has reached a cell density of ca. 2.4×10^10 cells/ml and Bacillus megaterium a cell density of ca. 2.1×10^8 cells/ml.
as §2
Escherichia coli: the ÜN is diluted 1:100 with physiological saline solution, of which 0.1 ml is converted into 10 ml nutrient agar. That corresponds to a cell count of 10^6.
as §3, §4, §5

[6] = system: Bacillus megaterium SBUG 1152; assay: as above; type: cell-based
Method: as §6, §7, §8, §2
Bacillus megaterium: 0.1 ml of non-diluted overnight culture (ÜN) in 10 ml nutrient agar corresponds to a cell count of 10^6.
as §3, §4, §5

S. aureus ATCC 6538 = assay: agar diffusion test (Test System II, multi-resistant germs); type: cell-based, Staphylococcus aureus
Outline: as §1

S. aureus 38418 = assay: as above; type: cell-based, Staphylococcus aureus
Outline: as §1

CC1=C(C(=O)O)N2C(=O)[C@@H](NC(=O)[C@H](N)c3ccc(O)cc3)[C@H]2SC1 [2a, Cefadroxil, reference compound]
Diameter of zone of inhibition ([1]; Quantity n 0.019): r | Diameter of zone of inhibition ([1]; Quantity n 0.1): 10 mm | Diameter of zone of inhibition ([1]; Quantity n 0.19): 14 mm | Diameter of zone of inhibition ([2]; Quantity n 0.019): r | Diameter of zone of inhibition ([2]; Quantity n 0.1): r | Diameter of zone of inhibition ([2]; Quantity n 0.19): 8 mm | Diameter of zone of inhibition (B. subtilis AWD 166; Quantity n 0.019): 36 mm | Diameter of zone of inhibition (B. subtilis AWD 166; Quantity n 0.1): 38 mm | Diameter of zone of inhibition (B. subtilis AWD 166; Quantity n 0.19): 40 mm | Diameter of zone of inhibition (S. epidermidis 563; Quantity n 0.019): 24 mm | Diameter of zone of inhibition (S. epidermidis 563; Quantity n 0.1): 28 mm | Diameter of zone of inhibition (S. epidermidis 563; Quantity n 0.19): 32 mm | Diameter of zone of inhibition (S. epidermidis 1068; Quantity n 0.019): 20 mm | Diameter of zone of inhibition (S. epidermidis 1068; Quantity n 0.1): 24 mm | Diameter of zone of inhibition (S. epidermidis 1068; Quantity n 0.19): 26 mm | Diameter of zone of inhibition (S. epidermidis 1071; Quantity n 0.019): 22 mm | Diameter of zone of inhibition (S. epidermidis 1071; Quantity n 0.1): 28 mm | Diameter of zone of inhibition (S. epidermidis 1071; Quantity n 0.19): 30 mm | Diameter of zone of inhibition (S. epidermidis 847; Quantity n [mol] 0.019): 12 mm | Diameter of zone of inhibition (S. epidermidis 847; Quantity n [mol] 0.1): 26 mm | Diameter of zone of inhibition (S. epidermidis 847; Quantity n [mol] 0.19): 30 mm | Diameter of zone of inhibition (S. aureus 36881; Quantity n 0.019): r | Diameter of zone of inhibition (S. aureus 36881; Quantity n 0.1): 14 mm | Diameter of zone of inhibition (S. aureus 36881; Quantity n 0.19): 18 mm | Diameter of zone of inhibition (S. aureus 39105; Quantity n 0.019): 16 mm | Diameter of zone of inhibition (S. aureus 39105; Quantity n 0.1): 24 mm | Diameter of zone of inhibition (S. aureus 39105; Quantity n 0.19): 26 mm | Diameter of zone of inhibition (S. aureus 33490; Quantity n [μmol] 0.019): 16 mm | Diameter of zone of inhibition (S. aureus 33490; Quantity n [μmol] 0.1): 24 mm | Diameter of zone of inhibition (S. aureus 33490; Quantity n [μmol] 0.19): 28 mm | Diameter of zone of inhibition (S. aureus 526; Quantity n 0.019): r | Diameter of zone of inhibition (S. aureus 526; Quantity n 0.1): r | Diameter of zone of inhibition (S. aureus 526; Quantity n 0.19): r | Diameter of zone of inhibition (S. aureus 34289; Quantity n [mol] 0.019): r | Diameter of zone of inhibition (S. aureus 34289; Quantity n [mol] 0.1): r | Diameter of zone of inhibition (S. aureus 34289; Quantity n [mol] 0.19): r | Diameter of zone of inhibition ([3]; Quantity n 0.019): r | Diameter of zone of inhibition ([3]; Quantity n 0.1): r | Diameter of zone of inhibition ([3]; Quantity n 0.19): 10 mm | Diameter of zone of inhibition (S. aureus 520; Quantity n [mol] 0.019): r | Diameter of zone of inhibition (S. aureus 520; Quantity n [mol] 0.1): r | Diameter of zone of inhibition (S. aureus 520; Quantity n [mol] 0.19): 8 mm | Diameter of zone of inhibition (S. epidermidis 125; Quantity n 0.019): 26 mm | Diameter of zone of inhibition (S. epidermidis 125; Quantity n 0.1): 36 mm | Diameter of zone of inhibition (S. epidermidis 125; Quantity n 0.19): 40 mm | Diameter of zone of inhibition (E. faecalis 945; Quantity n 0.019): r | Diameter of zone of inhibition (E. faecalis 945; Quantity n 0.1): r | Diameter of zone of inhibition (E. faecalis 945; Quantity n 0.19): r | chromatographic logP [4]: -3.5 | Diameter of zone of inhibition ([5]; Quantity n 0.019): 18 mm | Diameter of zone of inhibition ([5]; Quantity n 0.1): 22 mm | Diameter of zone of inhibition ([5]; Quantity n 0.19): 26 mm | Diameter of zone of inhibition ([6]; Quantity n 0.019): 36^1 mm | Diameter of zone of inhibition ([6]; Quantity n 0.1): 38 mm | Diameter of zone of inhibition ([6]; Quantity n 0.19): 40 mm | Diameter of zone of inhibition (S. aureus ATCC 6538; Quantity n 0.019): 32 mm | Diameter of zone of inhibition (S. aureus ATCC 6538; Quantity n 0.1): 38 mm | Diameter of zone of inhibition (S. aureus ATCC 6538; Quantity n 0.19): 40 mm | Diameter of zone of inhibition (S. aureus 38418; Quantity n [mol] 0.019): 30 mm | Diameter of zone of inhibition (S. aureus 38418; Quantity n [mol] 0.1): 34 mm | Diameter of zone of inhibition (S. aureus 38418; Quantity n [mol] 0.19): 38 mm
